Tests used:
[1] = target: T1, human adenosine transporter (Homo sapiens, UniProt Q99808); assay: Displacement of [3H]NBTI binding in U-937 cell homogenates; conditions: mean ± SEM; for Ki: [3H]NBTI 2-4 nM, 50 mM TRIS pH 7.5, 4° C., 1.5 h, Cheng-Prusoff, read-out: Affinity (Ki μM); for Hill slope: log-logit analysis of competition binding data
T1 construct: homogenates of U-937 cell culture (American Tissue Culture Compository), expressing the human (es) transporter; endogenous in cells; host or cells: U-937 (human) cell membrane homogenates
T1 sequence (Q99808 1-456): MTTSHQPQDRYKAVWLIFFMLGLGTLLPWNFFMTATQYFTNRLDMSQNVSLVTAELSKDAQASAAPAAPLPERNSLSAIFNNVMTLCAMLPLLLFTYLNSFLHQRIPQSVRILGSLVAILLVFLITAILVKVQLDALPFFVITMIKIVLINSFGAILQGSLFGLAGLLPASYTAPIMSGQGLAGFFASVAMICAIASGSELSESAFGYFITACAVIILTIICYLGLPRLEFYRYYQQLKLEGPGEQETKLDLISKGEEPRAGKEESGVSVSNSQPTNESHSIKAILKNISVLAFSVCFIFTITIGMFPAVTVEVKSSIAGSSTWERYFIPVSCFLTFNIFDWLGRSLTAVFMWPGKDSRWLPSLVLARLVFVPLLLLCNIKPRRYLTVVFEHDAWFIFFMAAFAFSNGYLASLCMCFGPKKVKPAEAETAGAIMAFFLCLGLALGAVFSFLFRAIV
Experimental: Neurochem 39, 184-191 (1982), incorporated herein by reference. The cell membranes in final concentration of 0.03 mg protein/mL are incubated with [^3H]NBTI at 2-4 nM concentration in 50 mM TRIS buffer (pH 7.5) at 4° C. for 1.5 h in a total volume of 1.0 mL. Nonspecific binding is defined with 10 μM NBTI. Each determination is carried out in triplicate. Bound and free [^3H]NBTI are separated by vacuum filtration through fiberglass filters (Schleicher & Schuell, Keene, N.H.) that are presoaked with 0.3% polyethylenimine for 10 min, using a Brandel […] cell harvester. The filters are washed three times for 10 s with ice-cold 50 mM TRIS buffer and placed in 10 mL scintillation fluid (Cytoscint, ICN). Beta spectrometry is performed using a Beckman […] instrument at 47% counting efficiency. IC50 values and Hill slopes (nH) are calculated from log-logit analysis of competition binding data. Ki values of the competing ligand are calculated from IC50 values using the Cheng-Prusoff equation, Ki=IC50/(1+L/KD) […] Data are expressed as mean±standard error of the mean (SEM).

human (es) transporter = target: T2, human (es) transporter (Homo sapiens, UniProt Q99808); assay: Inhibition of [3H]adenosine transport in homogenates of U-937 cell culture; type: biochemical; conditions: 10 μM [3H]adenosine; U-937 cell homogenates; HEPES buffer, 37° C., 30 min; read-out: inhibitory constant Ki, transport of [3H]adenosine
T2 construct: homogenates of U-937 cell culture (American Tissue Culture Compository), expressing the human (es) transporter; endogenous in cells; host or cells: U-937 (human) cell membrane homogenates
T2 sequence (Q99808 1-456): T1 sequence (Q99808 1-456)
Experimental: Inhibition of [^3H]adenosine transport in homogenates of U-937 cell culture (American Tissue Culture Compository), expressing the human (es) transporter is performed according to Gu et al, J. Neurochem 67, 972-977 (1996), which is incorporated herein by reference. Rate of transport is determined in HEPES buffer at 37° C. for 30 min (with choline replacing sodium). Full displacement curves for the adenosine transporter are obtained by using 8 concentrations of each compound, increasing by a factor of 2 and ranging from 0.25 μM-32 μM. Nonspecific transport is defined with 1 μM NBTI ((S)-(4-nitrobenzyl)-6-thioinosine). Cell cultures are grown in high glucose Dulbecco's modified Eagle's medium supplemented with NaHCO3 (40 mM), 10% fetal bovine serum (Gibco), 400 mg/L geneticin, and 0.1 mM hypoxanthine.
Briefly, the cells are cultured at 37° C. under a CO2/air (5/95, v/v) in tissue culture flasks (75 cm^2, Falcon). When reaching confluency (70-80%), cells are trypsinized and harvested by centrifugation. Harvested cells are re-suspended in 50 mM TRIS buffer at 4° C. (0.1 mg/mL), the cell membranes are disrupted by Polytron homogenization (12,500 rpm for 25 s), and the suspension is centrifuged at 30,000×g for 60 min. The supernatent is discarded and remaining the pellet is resuspended in 50 mM TRIS buffer to 0.2 mg-0.5 mg protein/mL and frozen at −80° C. until used. […]

## O=C(C=Cc1ccc(O)cc1)OC1CC2(O)CC(OC2=O)C1OC(=O)C=Cc1ccc(O)cc1 (stereo not drawn) [3,4-dicoumaroyl-1,5-quinide]
[1]
  Ki: 0.96 ± 0.07 µM
  Hill slope: 1.22 ± 0.11
other
  melting point: 233 to 235 °C

## O=C(C=Cc1ccc(Cl)cc1)OC1CC2(O)CC(OC2=O)C1OC(=O)C=Cc1ccc(Cl)cc1 (stereo not drawn) [3,4-di(4-chlorocinnamoyl)-1,5-quinide]
[1]
  Ki: 1.3 µM
  Hill slope: 1.12 ± 0.00
other
  melting point: 172 °C

## COc1cc(C=CC(=O)OC2CC3(O)CC(OC3=O)C2OC(=O)C=Cc2ccc(O)c(OC)c2)ccc1O (stereo not drawn) [3,4-diferuloyl-1,5-quinide]
Human (es) transporter
  Ki: 1.2 µM
[1]
  Ki: 0.96 ± 0.13 µM
  Hill slope: 0.94 ± 0.02
other
  melting point: 142 to 144 °C

## O=C(C=Cc1ccc(O)c(O)c1)OC1CC2(O)CC(OC2=O)C1OC(=O)C=Cc1ccc(O)c(O)c1 (stereo not drawn) [3,4-dicaffeoyl-1,5-quinide]
[1]
  Ki: 2.4 ± 0.7 µM
  Hill slope: 1.00 ± 0.03

— US6693128B2, “Substituted dicinnamoylquinides and their use in augmentation of adenonsine function” (Vanderbilt University, priority 2001, dated 2004)
